{
  "source": "patent US8969392B2",
  "about": "“Pesticide composition comprising propamocarb-fosetylate and an insecticidally active substance” (Bayer Cropscience AG, priority 2006, dated 2015)",
  "key": {"[1]": {"test_system": "Plutella xylostella", "assay": "Plutella xylostella test (cabbage leaf dip, larvae, mortality)", "assay_type": "in vivo", "settings": "mortality after 6 days, cabbage leaves dipped", "experimental": "(§1) To produce a suitable preparation of active compound, 1 part by weight of active compound is mixed with the stated amount of solvent and emulsifier, and the concentrate is diluted with emulsifier-containing water to the desired concentration.\nCabbage leaves (Brassica oleracea) are treated by being dipped into the preparation of the active compound at the desired concentration and are infested with larvae of the diamond black moth Plutella xylostella as long as the leaves are still moist.\nAfter a period of time of 6 days, the mortality is determined. 100% means that all the caterpillars have been killed; 0% means that none of the caterpillars have been killed."}, "[2]": {"test_system": "Myzus persicae", "assay": "Myzus persicae test (cabbage leaf dip, mortality)", "assay_type": "in vivo", "settings": "mortality after 6 days, cabbage leaves dipped", "experimental": "as §1\nCabbage leaves (Brassica oleracea) which are heavily infested by the green peach aphid (Myzus persicae) are treated by being dipped into the preparation of the active compound at the desired concentration.\nAfter a period of time of 6 days, the mortality is determined. 100% means that all the […] have been killed; 0% means that none of the […] have been killed."}, "[3]": {"test_system": "Phaedon cochleariae", "assay": "Phaedon cochleariae test (cabbage leaf dip, larvae, mortality)", "assay_type": "in vivo", "settings": "mortality after 4 days, cabbage leaves dipped", "experimental": "as §1\nCabbage leaves (Brassica oleracea) are treated by being dipped into the preparation of the active compound at the desired concentration and are infested with larvae of the mustard beetle Phaedon cochleariae as long as the leaves are still moist.\nAfter a period of time of 4 days, the mortality is determined. 100% means that all the […] have been killed; 0% means that none of the […] have been killed."}, "[4]": {"test_system": "Plasmopara viticola", "settings": "straight use of the compound; WO-99/42468; cited from earlier work"}},
  "data": [
    {"smiles": "N#C/N=C1\\SCCN1Cc1ccc(Cl)nc1", "note": "[thiacloprid]", "values": [
      {"measurement": "Efficacy (%)", "setting": "[1]; rate of application 20 ppm", "result": 20, "unit": "%"}
    ]},
    {"smiles": "CCCOC(=O)NCCCN(C)C.CCO[PH](=O)O", "note": "[Propamocarb-fosetylate, dimethyl-[3-(propoxycarbonylamino)propyl]ammonium-O-ethylphosphonate]", "values": [
      {"measurement": "Efficacy (%)", "setting": "[2]; rate of application 200 ppm", "result": 0, "unit": "%"},
      {"measurement": "Efficacy (%)", "setting": "[3]; rate of application 200 ppm", "result": 5, "unit": "%"},
      {"measurement": "Efficacy (%)", "setting": "[1]; rate of application 200 ppm", "result": 0, "unit": "%"},
      {"measurement": "fungicide activity to control Plasmopara viticola", "setting": "[4]", "result": "Some fungicide activity"}
    ]},
    {"smiles": "CN/C(=N\\[N+](=O)[O-])NCc1cnc(Cl)s1", "note": "[Clothianidin, clothianidin]", "values": [
      {"measurement": "Efficacy (%)", "setting": "[2]; rate of application 0.8 ppm", "result": 75, "unit": "%"}
    ]},
    {"smiles": "O=[N+]([O-])NC1=NCCN1Cc1ccc(Cl)nc1", "note": "[Imidacloprid, imidacloprid]", "values": [
      {"measurement": "Efficacy (%)", "setting": "[3]; rate of application 20 ppm", "result": 80, "unit": "%"}
    ]}
  ]
}
